The source of these data is paper PMC10404814, “Fluorescent membrane potential assay for drug screening on Kv10.1 channel: identification of BL-1249 as a channel activator” (Frontiers in Pharmacology, 2023).

Common to all, as to type: cell-based
Assay [1] deals with T1, Kv10.1 (Homo sapiens, UniProt O95259).
T1 construct: gene KCNH1
T1 sequence (O95259 1-989): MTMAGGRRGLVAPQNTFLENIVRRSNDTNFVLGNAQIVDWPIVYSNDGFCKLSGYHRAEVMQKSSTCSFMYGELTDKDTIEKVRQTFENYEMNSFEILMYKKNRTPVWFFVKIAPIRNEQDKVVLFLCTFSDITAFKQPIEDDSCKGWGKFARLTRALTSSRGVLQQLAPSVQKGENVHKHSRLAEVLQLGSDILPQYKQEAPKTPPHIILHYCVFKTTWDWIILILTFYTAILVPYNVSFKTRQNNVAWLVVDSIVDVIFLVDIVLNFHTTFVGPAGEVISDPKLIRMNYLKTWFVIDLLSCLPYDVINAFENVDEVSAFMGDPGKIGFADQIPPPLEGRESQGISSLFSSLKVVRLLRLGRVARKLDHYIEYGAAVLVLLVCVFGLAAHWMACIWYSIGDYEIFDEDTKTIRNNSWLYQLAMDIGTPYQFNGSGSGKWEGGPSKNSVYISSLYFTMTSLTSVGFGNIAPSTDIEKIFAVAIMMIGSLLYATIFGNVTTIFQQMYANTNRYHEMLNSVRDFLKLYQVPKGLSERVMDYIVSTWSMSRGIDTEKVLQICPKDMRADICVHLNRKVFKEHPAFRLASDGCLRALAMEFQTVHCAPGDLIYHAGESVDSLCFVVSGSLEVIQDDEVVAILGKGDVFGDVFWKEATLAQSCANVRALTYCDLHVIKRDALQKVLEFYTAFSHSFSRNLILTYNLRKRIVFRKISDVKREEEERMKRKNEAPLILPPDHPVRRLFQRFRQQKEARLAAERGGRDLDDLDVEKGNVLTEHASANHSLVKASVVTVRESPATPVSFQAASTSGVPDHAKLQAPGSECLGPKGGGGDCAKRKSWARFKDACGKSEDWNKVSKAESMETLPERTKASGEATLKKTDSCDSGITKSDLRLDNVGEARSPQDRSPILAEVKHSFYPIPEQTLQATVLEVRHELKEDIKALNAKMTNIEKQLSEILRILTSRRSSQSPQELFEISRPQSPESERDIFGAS
The assay is described as follows: whole-cell voltage-clamp of HEK293 cells stably expressing human Kv10.[…] (activator); no effect in HEK-WT.

Assay [2] concerns the target T1, Kv10.1. Nature of the assay: whole-cell voltage-clamp of HEK293 cells stably expressing human Kv10.[…].
In assay [3] the target is T1, Kv10.1. Nature of the assay: FLIPR membrane potential assay in HEK-Kv10.[…] cells, […]. To be noted: read-out: % decrease at 100 μM.
Assay [4] concerns the target T1, Kv10.1. The assay is described as above. To be noted: read-out: % decrease at 50 μM.

As usually defined, the EC50 is the midpoint of the concentration-response curve. A higher EC50 goes with weaker potency. For the compound `c1ccc(-c2nnn[nH]2)c(Nc2cccc3c2CCCC3)c1` [BL, BL-1249], the EC50 on Kv10.1 [1] was determined as 36.5 µM.

By IC50 is commonly meant the midpoint of a concentration-inhibition curve. A higher IC50 goes with a need for much substance. With `Clc1ccc(COC(Cn2ccnc2)c2ccc(Cl)cc2Cl)c(Cl)c1` (stereo not drawn) [MN, miconazole nitrate], it took 23.6 ± 5 µM to reach half-maximal inhibition against Kv10.1 [2] (IC50).

For `CN(C)CCC=C1c2ccccc2CCc2ccccc21` [amitriptyline], the inhibition at 100 µM on Kv10.1 [3] was determined as 25.5%.

For `COc1ccc(CCN2CCC(Nc3nc4ccccc4n3Cc3ccc(F)cc3)CC2)cc1` [astemizole], on Kv10.1 [4], the inhibition at 50 µM was determined as 34.8%.

For `CNCCC(Oc1ccc(C(F)(F)F)cc1)c1ccccc1` (stereo not drawn) [fluoxetine], the IC50 on Kv10.1 [2] worked out at 11.2 ± 6.2 µM.

`CN(C)C(=O)C(CCN1CCC(O)(c2ccc(Cl)cc2)CC1)(c1ccccc1)c1ccccc1` [loperamide]: the inhibition at 100 µM at Kv10.1 [3] was 31.9%.
